Data published in PMC10287555, “Camonsertib in DNA damage response-deficient advanced solid tumors: phase 1 trial results” (Nature Medicine, 2023).
Where two headings read alike, the source gives them in different places.

Columns and labels:
Type in all cases: in vivo, human
[1] = Plasma pharmacokinetics, cycle 1 day 1 (LC–MS/MS, non-compartmental analysis); details: for AUC(0-t) / Cmax / Tmax / AUC(0-inf) / half-life: human, plasma, oral; for Cmax: read-out: Cmax, geometric mean; for Tmax: read-out: Tmax, median; for AUC(0-inf): read-out: AUC0-INF, geometric mean
Method: (§1) The plasma levels from cycle 1, day 1 of camonsertib were quantified using a validated liquid chromatography tandem–mass spectrometry (LC–MS/MS) method. […] All PK parameters were calculated using actual sampling times. Mean plasma concentration time profiles at given dose levels and regimens were plotted on semi-logarithmic plots using nominal times.

p-KAP1 Ser821 = test: PD biomarker IHC in paired pre-/on-treatment tumor biopsies; details: 33 paired biopsies, doses >100 mg; P < 0.001, paired Wilcoxon test
Method: (§2) Tumor biopsies were collected from patients at baseline and on cycle 2, day 10 between 8 h and 24 h after dosing. […] Thus, p-CHK1 was not assessed owing to limited feasibility. Unstained slides sectioned at 4 μm were labeled for gH2AX Ser139 (clone 20E3, 9718, Cell Signaling Technology, 1:1,000 dilution) and pKAP1 S824 (clone BL-246-7B5, ab243870, Abcam, 1:600 dilution) on a BOND RX autostainer (Leica Biosystems) with enzyme treatment (1:1,000) and BOND Polymer Refine Detection (Leica Biosystems) according to the manufacturer’s protocol. After staining, sections were dehydrated and film-coverslipped using a TissueTek Prisma and Coverslipper (Sakura Fintech). Retrospective ATM IHC was performed by a sponsor-approved central laboratory (anti-ATM clone Y170, ab32420, Abcam, 1:250 dilution). All slides were interpreted by a board-certified pathologist. ATM loss was defined as ≤5% of positive tumor cells.

γ-H2AX = test: as above; details: 33 paired biopsies, doses >100 mg; P = 0.003, paired Wilcoxon test
Method: as §2

[2] = Food effect on PK (module 1c)
Excerpt: TRESR (NCT04497116) is a modular, phase 1/2a, first-in-human, multicenter, open-label, non-randomized, dose-escalation, dose-expansion study of camonsertib, administered orally as a single agent or in combination with talazoparib or gemcitabine in patients with advanced solid tumors. The results reported here focus on module 1, which includes the dose escalation of camonsertib monotherapy, and is further divided into three submodules: module 1a (M1a), 5/2 dosing schedule; module 1b (M1b), 3/4 dosing schedule; and module 1c (M1c), food effect evaluation. For the 12 patients enrolled in M1c, camonsertib was administered with a high-fat, high-calorie meal on day −3 and in the fasted state on day 1, to evaluate the effect of food on the PK of camonsertib. After the food effect portion of the study, patients continued camonsertib monotherapy on either the 5/2 or 3/4 schedule and were analyzed for safety and efficacy along with the patients in M1a and M1b. The study was conducted in accordance with the Declaration of Helsinki and Council for International Organizations of Medical Sciences International Ethical Guidelines, applicable International Conference on Harmonization Good Clinical Practice Guidelines and applicable laws and regulations. All patients provided written informed consent to adhere to the clinical protocol and provide serial blood samples and tumor tissue. The protocol was approved by the institutional review board or ethics committee at each participating institution.
as §1

[3] = Dose 5 mg, Tau 24 hr, cycle 1 day 1
[4] = Dose 10 mg, Tau 24 hr, cycle 1 day 1
[5] = Dose 20 mg, Tau 24 hr, cycle 1 day 1
[6] = Dose 40 mg, Tau 12 hr, cycle 1 day 1
[7] = Dose 40 mg, Tau 24 hr, cycle 1 day 1
[8] = Dose 60 mg, Tau 12 hr, cycle 1 day 1
[9] = Dose 80 mg, Tau 12 hr, cycle 1 day 1
[10] = Dose 80 mg, Tau 24 hr, cycle 1 day 1
[11] = Dose 100 mg, Tau 24 hr, cycle 1 day 1
[12] = Dose 120 mg, Tau 24 hr, cycle 1 day 1
[13] = Dose 160 mg, Tau 24 hr, cycle 1 day 1
[14] = Dose 200 mg, Tau 24 hr, cycle 1 day 1
[15] = 10 mg, Tau 24 hr, cycle 1 day 1
[16] = 20 mg, Tau 24 hr, cycle 1 day 1
[17] = 40 mg, Tau 12 hr, cycle 1 day 1
[18] = 40 mg, Tau 24 hr, cycle 1 day 1
[19] = 60 mg, Tau 12 hr, cycle 1 day 1
[20] = 80 mg, Tau 12 hr, cycle 1 day 1
[21] = 80 mg, Tau 24 hr, cycle 1 day 1
[22] = 100 mg, Tau 24 hr, cycle 1 day 1
[23] = 120 mg, Tau 24 hr, cycle 1 day 1
[24] = 160 mg, Tau 24 hr, cycle 1 day 1
[25] = 200 mg, Tau 24 hr, cycle 1 day 1
[26] = high fat/high calorie meal vs fasted, 100–160 mg QD

SMILES: C[C@@H]1COCCN1c1cc([C@]2(O)C[C@H]3CC[C@@H](C2)O3)c2cnn(-c3cc[nH]n3)c2n1 [camonsertib]
- AUC0-t/dose, geometric mean [1, 3]: 0.427 µg·h/mL/mg
- Cmax/dose, geometric mean [1, 3]: 0.098 µg/mL/mg
- AUC0-t/dose, geometric mean [1, 4]: 0.567 µg·h/mL/mg
- Cmax/dose, geometric mean [1, 4]: 0.105 µg/mL/mg
- AUC0-t/dose, geometric mean [1, 5]: 0.239 µg·h/mL/mg
- Cmax/dose, geometric mean [1, 5]: 0.04 µg/mL/mg
- AUC0-t/dose, geometric mean [1, 6]: 1.003 µg·h/mL/mg
- Cmax/dose, geometric mean [1, 6]: 0.095 µg/mL/mg
- AUC0-t/dose, geometric mean [1, 7]: 0.329 µg·h/mL/mg
- Cmax/dose, geometric mean [1, 7]: 0.029 µg/mL/mg
- AUC0-t/dose, geometric mean [1, 8]: 0.444 µg·h/mL/mg
- Cmax/dose, geometric mean [1, 8]: 0.055 µg/mL/mg
- AUC0-t/dose, geometric mean [1, 9]: 0.527 µg·h/mL/mg
- Cmax/dose, geometric mean [1, 9]: 0.038 µg/mL/mg
- AUC0-t/dose, geometric mean [1, 10]: 0.254 µg·h/mL/mg
- Cmax/dose, geometric mean [1, 10]: 0.071 µg/mL/mg
- AUC0-t/dose, geometric mean [1, 11]: 0.3 µg·h/mL/mg
- Cmax/dose, geometric mean [1, 11]: 0.052 µg/mL/mg
- AUC0-t/dose, geometric mean [1, 12]: 0.246 µg·h/mL/mg
- Cmax/dose, geometric mean [1, 12]: 0.044 µg/mL/mg
- AUC0-t/dose, geometric mean [1, 13]: 0.256 µg·h/mL/mg
- Cmax/dose, geometric mean [1, 13]: 0.046 µg/mL/mg
- AUC0-t/dose, geometric mean [1, 14]: 0.273 µg·h/mL/mg
- Cmax/dose, geometric mean [1, 14]: 0.047 µg/mL/mg
- Accumulation ([1]; after repeated dosing): no accumulation
- Increases in Cmax and AUC with dose ([1]; dose range 5–200 mg QD): linear
- AUC(0-t) ([1]; 5 mg, Tau 24 hr, cycle 1 day 1, read-out: AUC0-12, geometric mean): 1800 ng·h/mL
- AUC(0-t) ([1]; 5 mg, Tau 24 hr, cycle 1 day 1, read-out: AUC0-t, geometric mean): 2100 ng·h/mL
- Cmax ([1]; 5 mg, Tau 24 hr, cycle 1 day 1): 500 ng/mL
- Tmax ([1]; 5 mg, Tau 24 hr, cycle 1 day 1): 1.17 h
- AUC(0-t) ([1]; 10 mg, Tau 24 hr, cycle 1 day 1, read-out: AUC0-12, geometric mean): 4400 ng·h/mL
- AUC(0-t) ([1]; 10 mg, Tau 24 hr, cycle 1 day 1, read-out: AUC0-t, geometric mean): 5700 ng·h/mL
- Cmax [1, 15]: 1100 ng/mL
- Tmax [1, 15]: 1 h
- AUC(0-t) ([1]; 20 mg, Tau 24 hr, cycle 1 day 1, read-out: AUC0-12, geometric mean): 2800 ng·h/mL
- AUC(0-t) ([1]; 20 mg, Tau 24 hr, cycle 1 day 1, read-out: AUC0-t, geometric mean): 4800 ng·h/mL
- Cmax [1, 16]: 800 ng/mL
- Tmax [1, 16]: 10.7 h
- AUC(0-t) ([1]; 40 mg, Tau 12 hr, cycle 1 day 1, read-out: AUC0-12, geometric mean): 23400 ng·h/mL
- AUC(0-t) ([1]; 40 mg, Tau 12 hr, cycle 1 day 1, read-out: AUC0-t, geometric mean): 40100 ng·h/mL
- Cmax [1, 17]: 3800 ng/mL
- Tmax [1, 17]: 1.96 h
- AUC(0-t) ([1]; 40 mg, Tau 24 hr, cycle 1 day 1, read-out: AUC0-12, geometric mean): 4700 ng·h/mL
- AUC(0-t) ([1]; 40 mg, Tau 24 hr, cycle 1 day 1, read-out: AUC0-t, geometric mean): 13200 ng·h/mL
- Cmax [1, 18]: 1200 ng/mL
- Tmax [1, 18]: 22.1 h
- AUC(0-t) ([1]; 60 mg, Tau 12 hr, cycle 1 day 1, read-out: AUC0-12, geometric mean): 16900 ng·h/mL
- AUC(0-t) ([1]; 60 mg, Tau 12 hr, cycle 1 day 1, read-out: AUC0-t, geometric mean): 26600 ng·h/mL
- Cmax [1, 19]: 3300 ng/mL
- Tmax [1, 19]: 1.55 h
- AUC(0-t) ([1]; 80 mg, Tau 12 hr, cycle 1 day 1, read-out: AUC0-12, geometric mean): 21400 ng·h/mL
- AUC(0-t) ([1]; 80 mg, Tau 12 hr, cycle 1 day 1, read-out: AUC0-t, geometric mean): 42100 ng·h/mL
- Cmax [1, 20]: 3000 ng/mL
- Tmax [1, 20]: 2.17 h
- AUC(0-t) ([1]; 80 mg, Tau 24 hr, cycle 1 day 1, read-out: AUC0-12, geometric mean): 18700 ng·h/mL
- AUC(0-t) ([1]; 80 mg, Tau 24 hr, cycle 1 day 1, read-out: AUC0-t, geometric mean): 20300 ng·h/mL
- Cmax [1, 21]: 5700 ng/mL
- Tmax [1, 21]: 1 h
- AUC(0-t) ([1]; 100 mg, Tau 24 hr, cycle 1 day 1, read-out: AUC0-12, geometric mean): 24800 ng·h/mL
- AUC(0-t) ([1]; 100 mg, Tau 24 hr, cycle 1 day 1, read-out: AUC0-t, geometric mean): 30200 ng·h/mL
- Cmax [1, 22]: 5200 ng/mL
- Tmax [1, 22]: 1.54 h
- AUC(0-t) ([1]; 120 mg, Tau 24 hr, cycle 1 day 1, read-out: AUC0-12, geometric mean): 23900 ng·h/mL
- AUC(0-t) ([1]; 120 mg, Tau 24 hr, cycle 1 day 1, read-out: AUC0-t, geometric mean): 29500 ng·h/mL
- Cmax [1, 23]: 5300 ng/mL
- Tmax [1, 23]: 2.03 h
- AUC(0-t) ([1]; 160 mg, Tau 24 hr, cycle 1 day 1, read-out: AUC0-12, geometric mean): 34800 ng·h/mL
- AUC(0-t) ([1]; 160 mg, Tau 24 hr, cycle 1 day 1, read-out: AUC0-t, geometric mean): 41000 ng·h/mL
- Cmax [1, 24]: 7300 ng/mL
- Tmax [1, 24]: 1.21 h
- AUC(0-t) ([1]; 200 mg, Tau 24 hr, cycle 1 day 1, read-out: AUC0-12, geometric mean): 44700 ng·h/mL
- AUC(0-t) ([1]; 200 mg, Tau 24 hr, cycle 1 day 1, read-out: AUC0-t, geometric mean): 54600 ng·h/mL
- Cmax [1, 25]: 9500 ng/mL
- Tmax [1, 25]: 1 h
- AUC(0-inf) [1, 3]: 2300 ng·h/mL
- half-life ([1]; Dose 5 mg, Tau 24 hr, cycle 1 day 1, read-out: Half-life, geometric mean (converted)): 352 min
- AUC(0-inf) [1, 4]: 6600 ng·h/mL
- half-life ([1]; Dose 10 mg, Tau 24 hr, cycle 1 day 1, read-out: Half-life, geometric mean (converted)): 510 min
- AUC(0-inf) [1, 5]: 3100 ng·h/mL
- half-life ([1]; Dose 20 mg, Tau 24 hr, cycle 1 day 1, read-out: Half-life, geometric mean (converted)): 251 min
- AUC(0-inf) [1, 6]: 153000 ng·h/mL
- AUC(0-inf) [1, 8]: 66100 ng·h/mL
- AUC(0-inf) [1, 10]: 21000 ng·h/mL
- half-life ([1]; Dose 80 mg, Tau 24 hr, cycle 1 day 1, read-out: Half-life, geometric mean (converted)): 245 min
- AUC(0-inf) [1, 11]: 32300 ng·h/mL
- half-life ([1]; Dose 100 mg, Tau 24 hr, cycle 1 day 1, read-out: Half-life, geometric mean (converted)): 340 min
- AUC(0-inf) [1, 12]: 31300 ng·h/mL
- half-life ([1]; Dose 120 mg, Tau 24 hr, cycle 1 day 1, read-out: Half-life, geometric mean (converted)): 373 min
- AUC(0-inf) [1, 13]: 45900 ng·h/mL
- half-life ([1]; Dose 160 mg, Tau 24 hr, cycle 1 day 1, read-out: Half-life, geometric mean (converted)): 358 min
- AUC(0-inf) [1, 14]: 58900 ng·h/mL
- half-life ([1]; Dose 200 mg, Tau 24 hr, cycle 1 day 1, read-out: Half-life, geometric mean (converted)): 379 min
- half-life ([1]; across all QD dose levels, read-out: Median half-life (converted)): 348 min
- Doses at which plasma exposures achieved predicted efficacious exposures ([1]; in vivo): > 100 mg QD
- PK variability ([1]; intra-patient and inter-patient): low intra-patient and inter-patient variability
- Change in p-KAP1, on-treatment vs pre-treatment biopsy (p-KAP1 Ser821): statistically significant increases
- Change in γ-H2AX, on-treatment vs pre-treatment biopsy (γ-H2AX): statistically significant increases
- Food effect on AUC [2, 26]: no change in AUC
- Food effect on Cmax [2, 26]: reduction
- Food effect on Tmax [2, 26]: delay in Tmax
- Effect of a high-fat, high-calorie meal on PK ([2]; twelve patients, module 1c): modest PK changes
